42 compounds from patent US8802664B2 (Bioproject, priority 2010, dated 2014) can be followed below.

For one assay, the target named is T1, human H4 receptor (Homo sapiens, UniProt Q9H3N8).
T1 construct: expressed in transfected cells
T1 sequence (Q9H3N8 whole entry): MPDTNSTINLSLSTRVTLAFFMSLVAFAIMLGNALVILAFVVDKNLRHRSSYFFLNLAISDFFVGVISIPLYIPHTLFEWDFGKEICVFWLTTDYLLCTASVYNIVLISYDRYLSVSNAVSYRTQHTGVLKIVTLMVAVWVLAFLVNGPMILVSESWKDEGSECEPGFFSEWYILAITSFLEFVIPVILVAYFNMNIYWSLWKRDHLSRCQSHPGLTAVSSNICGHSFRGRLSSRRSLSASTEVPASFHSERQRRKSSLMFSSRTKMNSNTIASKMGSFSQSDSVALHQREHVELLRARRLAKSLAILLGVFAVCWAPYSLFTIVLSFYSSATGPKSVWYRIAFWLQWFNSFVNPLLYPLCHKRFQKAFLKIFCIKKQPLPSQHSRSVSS
The assay is described as follows: [3H]Histamine binding on membranes of CHO cells stably expressing human H4 receptor.
Conditions: not given
In outline:
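Filter-bound counts (liquid scintillation) gave H4 binding. Incubation used 20 μg membrane protein/well in Tris/HCl 50 mM plus EDTA 0.5 mM at pH 7.4, and 10 μM JNJ 7777120 set nonspecific binding. Filtration on GF/B pretreated with polyethyleneimine stopped the reaction.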
For the compound `Cc1cc(C(NC2CCN(C)CC2)c2nc3ccccc3s2)ccc1F` (stereo not drawn) [Example 35, [benzothiazol-2-yl(4-fluoro-3-methyl-phenyl)methyl](1-methylpiperidin-4-yl)amine], the Ki or IC50 activity class is less than 1000 nM.

`CN1CCC(OC(c2cccc(SCCNC3=NCCN3)c2)c2nc3ccccc3[nH]2)CC1` (stereo not drawn) [Example 317, (2-{3-[(1H-benzimidazol-2-yl)(1-methylpiperidin-4-yloxy)methyl]-phenylsulfanyl}ethyl)(4,5-dihydro-1H-imidazol-2-yl)amine] showed a Ki or IC50 activity class of less than 1000 nM. For the compound `CN1CCC(OC(c2cccc(OCCN3CCNCC3)c2)c2nc3ccccc3s2)CC1` (stereo not drawn) [Example 330, 2-{(1-methylpiperidin-4-yloxy)[3-(2-piperazin-1-yl-ethoxy)phenyl]methyl}benzothiazole], the Ki or IC50 activity class was less than 300 nM. With `CN1CCC(OC(c2nc3ccccc3[nH]2)c2cc(OC(F)(F)F)ccc2F)CC1` (single isomer, unassigned) [Example 435, 2-[(2-fluoro-5-trifluoromethoxyphenyl)(1-methylpiperidin-4-yloxy)methyl]-1H-benzimidazole], the Ki or IC50 activity class was less than 30 nM. The same measure, in the same setting: the value for `c1ccc2[nH]c(C(OC3CCNCC3)c3ccsc3)nc2c1` (stereo not drawn) [Example 538] was less than 1000 nM; that for `CN1CCC(OC(c2cccc(OCCCCN3CCOCC3)c2)c2nc3ccccc3s2)CC1` (stereo not drawn) [Example 322, 2-{(1-methylpiperidin-4-yloxy)[3-(4-morpholin-4-yl-butoxy)phenyl]methyl}benzothiazole] was less than 1000 nM. The compound `Cc1cc(F)c(C(OC2CCN(C)CC2)c2nc3ccccc3o2)c(F)c1` (stereo not drawn) [Example 536] yielded a Ki or IC50 activity class of less than 30 nM. `CN1CCC(OC(c2cccc(OCCCCCN)c2)c2nc3ccccc3[nH]2)CC1` (stereo not drawn) [Example 400, 5-{3-[(1H-benzimidazol-2-yl)(1-methylpiperidin-4-yloxy)methyl]phenoxy}pentylamine] showed a Ki or IC50 activity class of less than 30 nM. In the case of `COc1cccc(C(NC2CCN(C)CC2)c2nc3ccccc3s2)c1` (stereo not drawn) [Example 25, [benzothiazol-2-yl(3-methoxyphenyl)methyl](1-methylpiperidin-4-yl)amine], the Ki or IC50 activity class was less than 30 nM.

The compound `C=CCCCOc1cccc(C(NC2CCN(C)CC2)c2nc3ccccc3[nH]2)c1` (stereo not drawn) [Example 135, [(1H-benzimidazol-2-yl)(3-pent-4-enyloxyphenyl)methyl](1-methylpiperidin-4-yl)amine] gave a Ki or IC50 activity class of less than 300 nM. Still for that read-out and setting: the value for `CN1CCC(OC(c2cccc(-c3cccnc3)c2)c2nc3ccccc3[nH]2)CC1` (stereo not drawn) [Example 89, 2-[(1-methylpiperidin-4-yloxy)(3-pyridin-3-ylphenyl)methyl]-1H-benzimidazole] was less than 300 nM.

In turn, `CN1CCC(OC(c2cccc(C=CC#N)c2)c2nc3ccccc3s2)CC1` (stereo not drawn) [Example 217, 3-{3-[benzothiazol-2-yl(1-methylpiperidin-4-yloxy)methyl]phenyl}acrylonitrile] had a Ki or IC50 activity class of less than 300 nM. Same read-out and setting: the value for `CN1CCC(OC(c2ccc([N+](=O)[O-])cc2)c2nc3ccccc3[nH]2)CC1` (stereo not drawn) [Example 447, 2-[(1-methylpiperidin-4-yloxy)(4-nitrophenyl)methyl]-1H-benzimidazole] was less than 1000 nM. `CN1CCC(OC(c2nc3ccccc3[nH]2)c2ccc(F)cc2F)CC1` (stereo not drawn) [Example 221, 2-[(2,4-difluorophenyl)(1-methylpiperidin-4-yloxy)methyl]-1H-benzimidazole] returned a Ki or IC50 activity class of less than 300 nM. The compound `CN1CCC(OC(c2cccc(-c3cccc([N+](=O)[O-])c3)c2)c2nc3ccccc3s2)CC1` (stereo not drawn) [Example 97, 2-[(1-methylpiperidin-4-yloxy)(3′-nitrobiphenyl-3-yl)methyl]benzothiazole] yielded a Ki or IC50 activity class of less than 300 nM. `CN1CCC(OC(c2cccc(C#CCCNC(=N)NC(=O)OC(C)(C)C)c2)c2nc3ccccc3[nH]2)CC1` (stereo not drawn) [Example 307, N-tert-butoxycarbonyl-N′-(4-{3-[(1H-benzimidazol-2-yl)(1-methylpiperidin-4-yloxy)methyl]phenyl}but-3-ynyl)guanidine] returned a Ki or IC50 activity class of less than 1000 nM.

Turning to `CN1CCC(OC(c2cccc(OCCCn3cncn3)c2)c2nc3ccccc3s2)CC1` (stereo not drawn) [Example 348, 2-{(1-methylpiperidin-4-yloxy)[3-(3-[1,2,4]triazol-1-yl-propoxy)phenyl]methyl}benzothiazole], the Ki or IC50 activity class is less than 1000 nM. `CN1CCC(OC(c2cccc(OCC3CCCCC3)c2)c2nc3ccccc3s2)CC1` (stereo not drawn) [Example 285, 2-[(3-Cyclohexylmethoxyphenyl)(1-methylpiperidin-4-yloxy)methyl]benzothiazole] returned a Ki or IC50 activity class of less than 1000 nM. Take `CN1CCC(OC(c2cccc(N3CCC(O)C3)c2)c2nc3ccccc3[nH]2)CC1` (stereo not drawn) [Example 452]: the Ki or IC50 activity class was less than 300 nM. The same measure, in the same setting: under `CN1CCC(OC(c2cccc(SCCCCCCO)c2)c2nc3ccccc3[nH]2)CC1` (stereo not drawn) [Example 295, 6-{3-[(1H-benzimidazol-2-yl)(1-methylpiperidin-4-yloxy)methyl]phenylsulfanyl}hexan-1-ol] stands less than 300 nM.

Take `CN1CCC(OC(c2cccc(S(C)(=O)=O)c2)c2nc3ccccc3s2)CC1` (stereo not drawn) [Example 203, 2-[(3-methanesulfonylphenyl)(1-methylpiperidin-4-yloxy)methyl]benzothiazole]: the Ki or IC50 activity class is less than 1000 nM. The compound `CN1CCC(OC(c2cccc(C#CCCCCNC(=N)NC(=O)OC(C)(C)C)c2)c2nc3ccccc3[nH]2)CC1` (stereo not drawn) [Example 345, N-tert-butoxycarbonyl-N′-(6-{3-[(1H-benzimidazol-2-yl)(1-methylpiperidin-4-yloxy)methyl]phenyl}hex-5-ynyl)guanidine] registered a Ki or IC50 activity class of less than 300 nM. Regarding `CN1CCC(OC(c2cccc(C#CCCN)c2)c2nc3ccccc3s2)CC1` (stereo not drawn) [Example 282, 4-{3-[benzothiazol-2-yl(1-methylpiperidin-4-yloxy)methyl]phenyl}but-3-ynylamine], the Ki or IC50 activity class was less than 1000 nM. Regarding `CN1CCC(OC(c2ccccc2)c2nc3cc(F)ccc3s2)CC1` (stereo not drawn) [Example 33, 5-fluoro-2-[(1-methylpiperidin-4-yloxy)phenylmethyl]benzothiazole], the Ki or IC50 activity class is less than 300 nM.

For the compound `CN1CCC(OC(c2cccc(OCCCO)c2)c2nc3ccccc3s2)CC1` (stereo not drawn) [Example 258, 3-{3-[benzothiazol-2-yl(1-methylpiperidin-4-yloxy)methyl]phenoxy}propan-1-ol], the Ki or IC50 activity class was less than 300 nM. `CN1CCC(OC(c2nc3ccccc3s2)c2c(F)cc(Cl)cc2F)CC1` (stereo not drawn) [Example 532] displayed a Ki or IC50 activity class of less than 300 nM. `CN1CCC(OC(c2cccc(OCCCC(F)(F)F)c2)c2nc3ccccc3s2)CC1` (stereo not drawn) [Example 169, 2-{(1-methylpiperidin-4-yloxy)[3-(4,4,4-trifluoro-butoxy)phenyl]methyl}benzothiazole] had a Ki or IC50 activity class of less than 1000 nM. The same measure, in the same setting: the value for `CN1CCC(OC(c2cccc(OCCCCN)c2)c2nc3ccccc3[nH]2)CC1` (stereo not drawn) [Example 331, 4-{3-[(1H-benzimidazol-2-yl)(1-methylpiperidin-4-yloxy)methyl]phenoxy}butylamine] was less than 300 nM; that for `CN1CCC(OC(c2cccc(-c3ccccc3Cl)c2)c2nc3ccccc3[nH]2)CC1` (stereo not drawn) [Example 121, 2-[(2′-Chlorobiphenyl-3-yl)(1-methylpiperidin-4-yloxy)methyl]-1H-benzimidazole] was less than 300 nM; that for `CN1CCC(OC(c2cccc(SCC3CNC(=O)O3)c2)c2nc3ccccc3[nH]2)CC1` (stereo not drawn) [Example 457] was less than 30 nM. Same read-out and setting: the value for `CN1CCC(OC(c2cccc(SCCCCN)c2)c2nc3ccccc3s2)CC1` (stereo not drawn) [Example 359, 4-{3-[benzothiazol-2-yl(1-methylpiperidin-4-yloxy)methyl]phenylsulfanyl}butylamine] was less than 30 nM; that for `CN1CCC(OC(c2nc3ccccc3[nH]2)c2cc(C#CCCCN)ccc2F)CC1` (stereo not drawn) [Example 442] was less than 30 nM. As for `C=CCCCOc1cccc(C(OC2CCN(C)CC2)c2nc3ccccc3s2)c1` (stereo not drawn) [Example 168, 2-[(1-methylpiperidin-4-yloxy)(3-pent-4-enyloxy-phenyl)methyl]benzothiazole], the Ki or IC50 activity class is less than 300 nM. Same read-out and setting: under `CN1CCC(OC(c2cccc(CCCCCN)c2)c2nc3ccccc3[nH]2)CC1` (stereo not drawn) [Example 312, 5-{3-[(1H-benzimidazol-2-yl)(1-methylpiperidin-4-yloxy)methyl]phenyl}pentylamine] stands less than 300 nM; under `CN1CCC(OC(c2cccc(OCCCCn3cncn3)c2)c2nc3ccccc3s2)CC1` (stereo not drawn) [Example 316, 2-{(1-methylpiperidin-4-yloxy)[3-(4-[1,2,4]triazol-1-yl-butoxy)phenyl]methyl}benzothiazole], less than 300 nM; under `CCCCOc1cccc(C(NC2CCN(C)CC2)c2nc3ccccc3s2)c1` (stereo not drawn) [Example 91, [benzothiazol-2-yl(3-butoxyphenyl)methyl](1-methylpiperidin-4-yl)amine], less than 30 nM. `CNC1CCN(c2cccc(C(OC3CCN(C)CC3)c3nc4ccccc4s3)c2)C1` (stereo not drawn) [Example 483] had a Ki or IC50 activity class of less than 300 nM. In turn, `CN1CCC(OC(c2cccc(OCc3ccncc3)c2)c2nc3ccccc3s2)CC1` (stereo not drawn) [Example 265, 2-{(1-methylpiperidin-4-yloxy)[3-(pyridin-4-ylmethoxy)phenyl]methyl}benzothiazole] showed a Ki or IC50 activity class of less than 300 nM. Same read-out and setting: the value for `Cc1cccc(C(NC2CCN(C)CC2)c2nc3ccccc3s2)c1` (stereo not drawn) [Example 21, [(benzothiazol-2-yl)(m-tolyl)methyl](1-methylpiperidin-4-yl)amine] was less than 300 nM; that for `CN1CCC(OC(c2cccc(OCCF)c2)c2nc3ccccc3[nH]2)CC1` (stereo not drawn) [Example 476] was less than 30 nM.

The assay is the same for the next values; noted with them: human H4 receptor; evaluated in the GTPγ[35S] assay or in the [3H]histamine binding assay (not stated which per compound); Ki or IC50 class.
Consider `CN1CCC(OC(c2cccc(SCC=CCN)c2)c2nc3ccccc3[nH]2)CC1` (stereo not drawn) [Example 474], for which the Ki or IC50 activity class was less than 30 nM. The compound `CN1CCC(OC(c2cccc(N3CCC(N)C3)c2)c2nc3ccccc3s2)CC1` (stereo not drawn) [Example 429, 1-{3-[benzothiazol-2-yl(1-methylpiperidin-4-yloxy)methyl]phenyl}pyrrolidin-3-ylamine] registered a Ki or IC50 activity class of less than 300 nM.
